US4443434A, “Antiulcer agent” (American Home Products Corporation, priority 1982, dated 1984)

Legend:
[1] = system: gastric acid secretion; settings: on a molar basis; cited from earlier work
[2] = system: gastric blood flow; experiment: gastric blood flow by 86Rb distribution in rats; assay type: in vivo, rat; settings: 1 mg/kg/hr i.v. infusion, 86RbCl at 30 min, mean ± S.E.M., 5 animals per group; saline 1.20 ± 0.05
Description: The effect of the octapeptide on gastric blood flow was established by the following procedure:
Rats weighing 280-350 gms were used. Rats were anesthatized with 50 mg/kg Nembutal and their left jugular veins cannulated. Somatostatin, 1 mg/kg/hr, was infused i.v. in one group of rats while a second group received a saline infusion. In a second experiment the octapeptide of the method of this invention, 1 mg/kg, or saline was injected s.c. Thirty minutes following the start of the experiment 20 μCi/rat of ^86 RbCl was injected i.v. The rats were killed 20 seconds later by injection of 0.5 ml Nembutal. The blood flow to the stomach was determined by counting ^86 Rb in the disected stomachs of the rats.

[3] = system: gastric acid secretion; settings: dose as high as 2 μm/kg, s.c.; cited from earlier work

Compound: CSCCC(NC(=O)C(Cc1c[nH]c2ccccc12)NC(=O)CNC(=O)C(Cc1ccc(O)cc1)NC(=O)C(C)NC(=O)C(CCC(=O)O)NC(=O)C(CCC(=O)O)NC(=O)C(CCC(=O)O)NC(=O)[C@H](CCC(=O)O)NC(=O)[C@H](CCC(=O)O)NC(=O)[C@H](CC(C)C)NC(=O)[C@H](Cc1c[nH]c2ccccc12)NC(=O)[C@@H]1CCCN1C(=O)CNC(=O)[C@@H](N)CCC(=O)O)C(=O)NC(CC(=O)O)C(=O)NC(Cc1ccccc1)C(N)=O (stereo in doubt) [gastrin]
- potency as stimulant of gastric acid secretion relative to histamine [1]: 1,500 times

Compound: C[C@H](N)C(=O)NCC(=O)N[C@H]1CSSC[C@@H](C(=O)O)NC(=O)[C@H](CO)NC(=O)[C@H]([C@@H](C)O)NC(=O)[C@H](Cc2ccccc2)NC(=O)[C@H]([C@@H](C)O)NC(=O)[C@H](CCCCN)NC(=O)[C@H](Cc2c[nH]c3ccccc23)NC(=O)[C@H](Cc2ccccc2)NC(=O)[C@H](Cc2ccccc2)NC(=O)[C@H](CC(N)=O)NC(=O)[C@H](CCCCN)NC1=O [somatostain, somatostatin]
- % total 86Rb in stomach [2]: 1.03 ± 0.05%

Compound: D-Lys^6 -SRIF
- effect on gastric acid secretion [3]: no appreciable effect
